The values that follow come from US12168665B2, “Substituted imidazo[l,2-a]pyrazines and pyrazino[l,2-a] pyrimidines as topical agents for dermatological applications” (Genesis Molecular Technologies, Inc., priority 2020, dated 2024).

“Also recorded” adds a separate entry of the source. Where two headings read alike, the source gives them in different places.

Data set [1] concerns TCF/LEF reporter activity. Briefly: Wnt/driven TCF/LEF reporter (Luc) activity in HEK293 cell line assay. Format: cell-based. Particulars: TCF/LEF reporter (Luc)-HEK293 cells, LiCl and mouse Wnt3a stimulation, read-out: IC50 value of compounds against TCF/LEF reporter activity. The method, then: Assay of Wnt/driven TCF/LEF reporter (Luc) activity in a stably transfected cell line. The Wnt/driven TCF/LEF reporter (Luc) activity in a stably transfected cell line assay was performed at BPS Bioscience (San Diego, CA 92121, USA). In brief, TCF/LEF reporter (Luc)-HEK293 cells are harvested from culture in growth medium and seeded at a density of about 35,000 cells per well into a white clear-bottom 96-well microplate in 80 μL of assay medium. 20 μL of 50 mM LiCl solution in assay medium are added to each well (final concentration 10 mM), and cells are incubated at 37° C. in a CO2 incubator for 16 hours. 10 μL of threefold serial dilution of mouse Wnt3a in assay medium are added to each stimulated well. The plate is incubated at 37° C. in a CO2 incubator for 6 hours. 100 μL of ONE-Step™ Luciferase Assay buffer per well are added and the plate is shaken for 30 min prior to measuring luminescence using a luminometer.
Exemplary compounds, wherein Y is hydrogen, of the present invention were tested for Wnt/driven TCF/LEF reporter (Luc) activity in HEK293 cell line assay. […] The positive control compound for this assay is IWR-1-endo, which is known in the art as a non-CBP/β-catenin Wnt antagonist, which stabilizes Axin-dependent β-catenin destruction (Chen, B., et al., Nat. Chem. Biol. 2009; 5(2):100-107).

Data set [2] deals with CBP/β-catenin (Wnt-driven luciferase activity). Kind of data set: SuperTOPFLASH cell-based luciferase assay (Hek293, STF1.1). Particulars: Homo sapiens; Hek293 STF1.1 cells; tested at 2.5, 5, 10 and 20 μM. As for the experimental part:
SuperTOPFLASH Cell-based Luciferase Assay. Hek-293,STF1.1 cells are maintained in DMEM, 10% FBS, Pen-Strep supplemented with 200 μg/mL G418. On the day prior to assay, cells are split into a white, opaque 96-well plate at 10,000 cells per well in 50 μL of complete medium without G418 (for screening of Wnt-signaling inhibitors, G418 can be left out during screening process). After allowing the cells to stabilize and attach overnight, 40 μL of complete medium (without G418) containing 2.5× final concentration of compound or DMSO control is added to the cells and allowed to incubate for 1 hour at 37° C., 5% CO2 prior to adding […] of a 100 mM LiCl solution prepared in complete medium (without G418). After 24 hours, 100 µL of BrightGlo™ (Promega, Cat. #: G7573) is added to each well and the plate is shaken for 5 minutes prior to reading on the Perkin-Elmer EnVision™ Plate Reader. […]

Data set [3] can be described thus: Stability by analytical HPLC analysis. The class given is physicochemical. The method, then:
Analytical HPLC analysis was performed on an Agilent 1100 HPLC with a Phenomenex Luna C18 (2) column (3 micron, 150×4.6 mm id) at a flow rate of 0.6 mL/min, eluting with a binary solvent system A and B using a 35%-70% B in 20 min and then 70%-95% B in 5 min (gradient elution 1), or 70%-95% B in 25 min and then 95%-100% B in 3 min (gradient elution 2) (A: Milli-Q water with 0.1% TFA; B: CH3CN with 0.1% TFA). NMR spectra were recorded on a Bruker AV-300 300 MHz NMR instrument using DMSO-d6 or CDCl3 with TMS as an internal standard. Mass spectra data was obtained with Bruker Esquire Liquid Chromatography-Ion Trap Mass Spectrometer.
As is readily apparent, compound 6 is stable at room temperature both in a solid form and in organic solvents (e.g., CH3CN, and CH3OH).

The test system of a further data set is human skin. Kind of data set: Cosmetic evaluation on human skin, topical formulation. Format: in vivo. Particulars: 0.15% wt./wt. topical formulation twice daily, 8 weeks. The text has this:
For cosmetic evaluation, compound 6 (0.15% wt./wt.) formulated in an aqueous based vehicle was topically applied twice daily (0.25 g formulation per application) during an 8-week testing period according to the following daytime/nighttime regimen.
During the study, subjects used no other skin care regimen. Prior to application of the test formulation, subjects washed their faces with Purpose cleanser, rinsed and then dry patted their faces. For each daytime and each nighttime application, 0.25 g of the test formulation (2 pumps from an applicator) was then applied to the entire face, around the eyes and onto the neck. Photographs (without any face and eye make-up), and self-assessment was performed before and after the 8-week period.

For data set [4] the following is noted: animal toxicity studies and clinical studies; cited from earlier work.
The test system of data set [5] is hapten-induced atopic dermatitis-like dermatitis. Particulars: preclinical study (Matsuda-Hirose 2019); cited from earlier work.

Take `O=C1[C@H](Cc2ccc(O)cc2)N2C(=O)C[C@H](CO)N(C(=O)NCc3ccccc3)[C@H]2CN1Cc1cccc2ccccc12` [Compound 2, (2R,6S,9aS)—N-benzyl-6-(4-hydroxybenzyl)-2-(hydroxymethyl)-8-(naphthalen-1-ylmethyl)-4,7-dioxohexahydro-2H-pyrazino[1,2-a]pyrimidine-1(6H)-carboxamide]: in data set [1] (Homo sapiens), the IC50 was > 25 µM.
On to `O=C1[C@H](Cc2ccc(O)cc2)N2C(=O)C[C@@H](CO)N(C(=O)NCc3ccccc3)[C@H]2CN1Cc1cccc2ccccc12` [Compound 3, (2S,6S,9aS)—N-benzyl-6-(4-hydroxybenzyl)-2-(hydroxymethyl)-8-(naphthalen-1-ylmethyl)-4,7-dioxohexahydro-2H-pyrazino[1,2-a]pyrimidine-1(6H)-carboxamide], for which the IC50 worked out at 16 µM in data set [1] (Homo sapiens) and 2.5 µM in data set [2].
Turning to `O=C1[C@H](Cc2ccc(O)cc2)N2C(=O)[C@H](CO)N(C(=O)NCc3ccccc3)[C@H]2CN1Cc1cccc2ccccc12` [Compound 4, (2S,5S,8a5)-N-benzyl-5-(4-hydroxybenzyl)-2-(hydroxymethyl)-7-(naphthalen-1-ylmethyl)-3,6-dioxohexahydroimidazo[1,2-a]pyrazine-1(5H)-carboxamide], the IC50 in data set [1] (Homo sapiens) was determined as 11.2 µM.
On the same count and under the same terms, next, `O=C1[C@H](Cc2ccc(O)cc2)N2C(=O)[C@@H](CCO)N(C(=O)NCc3ccccc3)[C@H]2CN1Cc1cccc2ccccc12` [Compound 5, (2R,5S,8a5)-N-benzyl-5-(4-hydroxybenzyl)-2-(2-hydroxyethyl)-7-(naphthalen-1-ylmethyl)-3,6-dioxohexahydroimidazo[1,2-a]pyrazine-1(5H)-carboxamide]: > 25 µM.
In the case of `CCCCCCCCCCCC(=O)OC[C@@H]1CC(=O)N2[C@H](CN(Cc3cccc4ccccc34)C(=O)[C@@H]2Cc2ccc(O)cc2)N1C(=O)NCc1ccccc1` [Compound 6, (2S,6S,9aS)-1-(benzylcarbamoyl)-6-(4-hydroxybenzyl)-8-(naphthalen-1-ylmethyl)-4,7-dioxooctahydro-2H-pyrazino[1,2-a]pyrimidin-2-yl)methyl dodecanoate], the “Degradation product detected by analytical HPLC” value in data set [3] (after 4 days at room temperature) is listed as “No degradation product”. Moreover, in data set [3] (solid form and organic solvents (CH3CN, CH3OH), analytical HPLC), the “Stability at room temperature” value was “stable”. For the same compound, in the data set with human skin, the “Improvement of skin appearance (wrinkles, redness)” value was “improvement of skin appearance (e.g., reducing the appearance of wrinkles and redness) is achieved; also recorded: Skin improvement (e.g., reducing the extent and appearance of wrinkles) was visible”.
For `O=C1[C@H](Cc2ccc(O)cc2)N2C(=O)CCN(C(=O)NCc3ccccc3)[C@H]2CN1Cc1cccc2ccccc12` [ICG-001], in data set [4], the “Safety at effective levels” value is recorded as “extremely safe”. Moreover, the “Effect on hapten-induced atopic dermatitis-like dermatitis” value in data set [5] is “prevents the emergence of hapten-induced atopic dermatitis-like dermatitis”.
For `O=C(Nc1cccc2cccnc12)c1ccc(N2C(=O)[C@@H]3[C@H](C2=O)[C@@H]2C=C[C@H]3C2)cc1` [IWR-1-endo, reference compound], in data set [1], the IC50 amounted to 0.2 µM.
